“Also recorded” adds a separate entry of the source.
How the values were obtained:
CYP2C9 = target: T1, CYP2C9 (Homo sapiens, UniProt P11712); assay: CYP inhibition assay CYP2C9 (diclofenac 4-hydroxylase); format: in vitro ADME; conditions: 10 μM, human liver microsomes, n = 3
T1 construct: 0.25 mg/mL human liver microsomes; from tissue; host or cells: human liver microsomes
Protocol: (§1) Phenacetin O-demethylase, diclofenac 4-hydroxylase, S-mephenytoin 4-hydroxylase, dextromethorphan O-demethylase, and midazolam 1’-hydroxylase activities were determined as probe activities for CYP1A2, CYP2C9, CYP2C19, CYP2D6, and CYP3A4, respectively, using cocktail incubation. […] The cocktail incubation mixtures consisted of 0.25 mg/mL human liver microsomes, 0.1 M phosphate buffer (pH 7.4), an NADPH regeneration system, and inhibitors (CRF1R antagonist compounds, 10 µM) in a total volume of 100 μL. The final volume of the organic solvents in the incubation mixture was 1% (v/v). […] All incubations were performed in triplicate, and the mean values were used for analysis. The samples were then centrifuged at 15,000 rpm for 5 min at 4 °C. […] The CYP-mediated activities in the presence of inhibitors were expressed as percentages of the corresponding control values.

PK studies in rats = format: in vivo, SD rats; conditions: for AUC(0-t) / half-life / Cmax / Tmax / bioavailability: male, Sprague-Dawley, rat, plasma, SD rats, n = 3
Protocol: CRF1R antagonist PKs were studied in naïve male SD rats following a single i.v. bolus injection or p.o. gavage. The i.v. injections used Antalarmin, BMK-C203, or BMK-C205 at doses of 5 mg/kg and BMK-I-152 at a dose of 1 mg/kg. The antagonist’s doses in the p.o. injection was 10 mg/kg. Three male SD rats weighing between 220 and 260 g were used to evaluate CRF1R antagonist PKs. The vehicle used for all dose groups was […]: TPGS: PEG400 (70%:20%:10%). Blood samples were collected from all treatment groups at 0 h (predose), 0.083, 0.25, 0.5, 1, 2, 4, 6, 8, and 24 h after dosing. Antalarmin, BMK-I-152, BMK-C203, and BMK-C205 concentrations in the plasma samples were determined via LC‒MS/MS (LLOQ was 1 ng/mL for CRF1R antagonists). PK parameter estimates were determined using the serial time-course profiles for plasma concentrations of three male rats per group via noncompartmental analysis using commercially available software (Phoenix WinNonlin, version 8.1, Pharsight Corporation, Mountain View, CA).

CYP1A2 = target: T2, CYP1A2 (Homo sapiens, UniProt P05177); assay: CYP inhibition assay CYP1A2 (phenacetin O-demethylase); format: in vitro ADME; conditions: 10 μM, human liver microsomes, n = 3
T2 construct: 0.25 mg/mL human liver microsomes; from tissue; host or cells: human liver microsomes
T2 sequence (P05177 1-516): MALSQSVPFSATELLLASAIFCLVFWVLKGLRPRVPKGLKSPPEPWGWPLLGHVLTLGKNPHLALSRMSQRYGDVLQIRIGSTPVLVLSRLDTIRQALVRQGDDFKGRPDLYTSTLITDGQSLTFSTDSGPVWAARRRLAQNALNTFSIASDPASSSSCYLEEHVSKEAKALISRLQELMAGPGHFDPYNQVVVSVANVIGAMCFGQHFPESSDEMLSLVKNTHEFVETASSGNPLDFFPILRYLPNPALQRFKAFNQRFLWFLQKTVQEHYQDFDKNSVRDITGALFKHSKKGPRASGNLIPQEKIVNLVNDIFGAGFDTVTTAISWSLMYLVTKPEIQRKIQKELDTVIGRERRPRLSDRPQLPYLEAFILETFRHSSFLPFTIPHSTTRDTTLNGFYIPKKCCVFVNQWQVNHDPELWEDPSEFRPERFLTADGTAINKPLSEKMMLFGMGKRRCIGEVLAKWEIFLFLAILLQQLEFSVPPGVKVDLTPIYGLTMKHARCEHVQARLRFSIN
Protocol: as §1

ACTH serum levels = assay: Serum ACTH level after TST (ELISA); format: in vivo, mice; conditions: 30 mg/kg orally for 3 days, immediately after TST
Protocol: The mice were anesthetized via intraperitoneal injections of 2,2,2-tribromoethanol (300 mg/kg, Sigma-Aldrich) immediately after the TST and before blood from the heart was sampled. Blood samples were collected in plastic tubes and incubated at room temperature for at least 2 h. The sera were extracted after centrifugation at 13,000×g for 10 min at 4 °C. CORT levels were determined via LC‒MS analysis. Serum (10 µL) was mixed with 20 μL of an internal standard solution (d4-cortisol) to prepare the samples. Subsequently, 100 μL of acetonitrile was added, and the mixture was centrifuged at 16,000×g for 10 min for protein precipitation. The supernatants (60 μL) were transferred into an autosampler vial, and 30 μL of water was added for efficient separation via high-performance liquid chromatography (HPLC). LC‒MS was performed with a triple quadrupole mass spectrometer coupled with HPLC using a C18 reversed-phase column. CORT levels were determined using a calibration curve constructed using CORT-spiked mouse serum. Serum samples (20 μL) were analyzed using a commercially available ELISA kit for ACTH (ab263880, Abcam) to measure ACTH serum levels.

[1] = In vitro BBB permeability assay; format: in vitro ADME, human; conditions: human; 10 μM apical, 12-h incubation, hCMEC/D3 monolayer; read-out: permeability coefficient
Protocol: Human cerebral microvascular endothelial cells (hCMECs/D3, SCC066; Sigma-Aldrich) were used to assess the permeability of CRF1R antagonists across the BBB. hCMECs were seeded on Falcon^TM cell culture inserts (08-770, Fisher Scientific) with 0.4 μm pore sizes precoated with collagen type I from rat tails (354236, Corning) at a density of 50,000 cells/mL in endothelial cell growth medium-2 (EGM-2, CC-3162; Lonza). The medium was changed with EGM-2 every three to four days for proliferation and with EGM-2 containing 2.5% human serum (SLBX6020, Sigma-Aldrich) for differentiation. Cell culture inserts were transferred into 24-well plates containing 700 μL of EGM-2 in each well (basolateral compartment) for the permeability assay. The medium in the inserts (apical compartment) was then replaced with 300 μL EGM-2 containing 10 μM BMK-C203 or BMK-C205. Apical and basolateral compartments were collected after a 12-h incubation at 37 °C, and drug concentrations were measured using HPLC. For sample preparation, 50 μL of the sample was mixed with 10 μL of an internal standard solution (d4-cortisol). Subsequently, 50 μL of acetonitrile was added, and the mixture was centrifuged at 16,000×g for 10 min for protein precipitation. The supernatants were used for LC‒MS analysis with a triple quadrupole mass spectrometer coupled with HPLC using a C18 reversed-phase column. The concentration of the antagonists was determined using a calibration curve. The permeability coefficient (P) was calculated according to Pardridge et al.[34]. The permeability-surface area product (PS, in cm^3/s) was divided by the filter surface area A (in cm^2) using Eq. (1) as follows:1 Pcm/s=Vd×△Ma/A×[…]×△t where Vd is the volume in the donor compartment in cm^3, ΔMa is the total amount of the compound in the […] compartment after t seconds, Md is the donor amount, Δt is the incubation time, and A is the filter area in cm^2.

T1 sequence (P11712 whole entry): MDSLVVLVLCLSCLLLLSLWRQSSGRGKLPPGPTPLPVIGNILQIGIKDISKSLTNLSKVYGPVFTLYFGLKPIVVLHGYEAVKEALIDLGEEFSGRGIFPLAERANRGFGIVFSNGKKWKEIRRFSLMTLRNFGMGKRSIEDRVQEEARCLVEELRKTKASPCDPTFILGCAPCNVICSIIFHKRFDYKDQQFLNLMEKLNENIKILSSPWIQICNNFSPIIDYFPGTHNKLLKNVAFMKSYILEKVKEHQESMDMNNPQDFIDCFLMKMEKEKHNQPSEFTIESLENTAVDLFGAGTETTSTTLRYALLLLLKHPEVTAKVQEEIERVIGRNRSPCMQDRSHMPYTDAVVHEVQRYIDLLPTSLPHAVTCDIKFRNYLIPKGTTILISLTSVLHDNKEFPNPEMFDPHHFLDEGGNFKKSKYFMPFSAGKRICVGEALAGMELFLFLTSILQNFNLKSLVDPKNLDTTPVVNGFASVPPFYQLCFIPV

Row | AUC(0-t) (PK studies in rats; iv, I.V, 5 mg/kg) [ng·h/mL] | half-life (PK studies in rats; iv, I.V, 5 mg/kg) [h] | AUC(0-t) (PK studies in rats; po, P.O, 10 mg/kg) [ng·h/mL] | Cmax (PK studies in rats; po, P.O, 10 mg/kg) [ng/mL] | Tmax (PK studies in rats; po, P.O, 10 mg/kg) [h] | bioavailability (PK studies in rats; po, P.O, 10 mg/kg) [%] | half-life (PK studies in rats; po, P.O, 10 mg/kg) [h] | Papp at 12 h, 10 µM [1] [×10⁻⁶ cm/s] | serum concentration relative to BMK-C203 (PK studies in rats; 2 h after oral administration in the PK test) | Structure (SMILES) | CYP2C9, percentage of control activity (CYP2C9) | CYP1A2, percentage of control activity (CYP1A2) | serum ACTH level versus vehicle (ACTH serum levels)
1 | 20600 | 4.76 | 16100 | 1370 | 4.67 | 39.5 | 4.22 | 0.0296 | – | COc1cc(Br)cc(OC)c1-c1c(C)nn2c(N(CCCC(F)(F)F)CCCC(F)(F)F)nc(C)nc12 [BMK-C203] | 94.9 ± 1.9 percentage of control activity | 95.6 ± 2.9 percentage of control activity | decreased; also recorded: lower than those in the vehicle group; also recorded: significantly affected
2 | 22900 | 6.5 | 9880 | 2400 | 2 | 21.6 | 3.87 | 0.211 | twice as high | CCCCN(CC1CC1)c1nc(C)nc2c(-c3c(OC)cc(Br)cc3OC)c(C)nn12 [BMK-C205] | 89.8 ± 2.4 percentage of control activity | > 100 ± 4.2 percentage of control activity | decreased; also recorded: lower than those in the vehicle group
